Results taken from paper PMC5773950 (British Journal of Pharmacology, 2018).
Where two headings read alike, the source gives them in different places. Marks after values point to notes of the source that are not given here.

Assays:
[1] = molecular target: T1, human NET (Homo sapiens, UniProt P23975); experiment: cell-based; format: cell-based
[2] = molecular target: human DAT (Homo sapiens, UniProt Q01959); experiment: cell-based
[3] = molecular target: T2, 5‐HT1A receptor (Homo sapiens, UniProt P08908); experiment: biochemical; format: binding
T2 sequence (P08908 1-422): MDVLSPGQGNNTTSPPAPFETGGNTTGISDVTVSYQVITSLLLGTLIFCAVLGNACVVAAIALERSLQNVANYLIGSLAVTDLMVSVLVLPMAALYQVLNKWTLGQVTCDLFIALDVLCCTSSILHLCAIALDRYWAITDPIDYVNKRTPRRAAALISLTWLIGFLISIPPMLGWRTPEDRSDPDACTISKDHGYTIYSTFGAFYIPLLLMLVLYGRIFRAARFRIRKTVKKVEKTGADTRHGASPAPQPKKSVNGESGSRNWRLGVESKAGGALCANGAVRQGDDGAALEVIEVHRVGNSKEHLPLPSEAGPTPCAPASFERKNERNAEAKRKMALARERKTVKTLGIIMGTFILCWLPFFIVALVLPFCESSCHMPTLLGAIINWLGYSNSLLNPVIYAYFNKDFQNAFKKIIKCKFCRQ

[4] = molecular target: 5‐HT2A receptor (Homo sapiens, UniProt P28223); experiment: biochemical; format: binding
5‐HT2A receptor, sequence (P28223 whole entry): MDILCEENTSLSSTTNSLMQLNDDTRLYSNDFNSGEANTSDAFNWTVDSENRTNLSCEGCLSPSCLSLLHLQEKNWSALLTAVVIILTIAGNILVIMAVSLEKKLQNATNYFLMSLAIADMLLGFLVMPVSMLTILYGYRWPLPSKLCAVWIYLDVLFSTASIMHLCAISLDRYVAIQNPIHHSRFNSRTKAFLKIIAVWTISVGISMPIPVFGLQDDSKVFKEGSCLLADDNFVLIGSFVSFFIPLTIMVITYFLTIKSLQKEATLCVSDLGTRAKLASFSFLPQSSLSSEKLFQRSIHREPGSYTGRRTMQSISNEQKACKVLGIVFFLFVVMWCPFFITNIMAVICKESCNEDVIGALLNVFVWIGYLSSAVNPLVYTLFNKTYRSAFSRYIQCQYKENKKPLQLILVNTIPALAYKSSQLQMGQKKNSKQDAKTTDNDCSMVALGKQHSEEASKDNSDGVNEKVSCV

[5] = in vivo
[6] = molecular target: T3, human SERT (Homo sapiens, UniProt P31645); experiment: cell-based
T3 sequence (P31645 whole entry): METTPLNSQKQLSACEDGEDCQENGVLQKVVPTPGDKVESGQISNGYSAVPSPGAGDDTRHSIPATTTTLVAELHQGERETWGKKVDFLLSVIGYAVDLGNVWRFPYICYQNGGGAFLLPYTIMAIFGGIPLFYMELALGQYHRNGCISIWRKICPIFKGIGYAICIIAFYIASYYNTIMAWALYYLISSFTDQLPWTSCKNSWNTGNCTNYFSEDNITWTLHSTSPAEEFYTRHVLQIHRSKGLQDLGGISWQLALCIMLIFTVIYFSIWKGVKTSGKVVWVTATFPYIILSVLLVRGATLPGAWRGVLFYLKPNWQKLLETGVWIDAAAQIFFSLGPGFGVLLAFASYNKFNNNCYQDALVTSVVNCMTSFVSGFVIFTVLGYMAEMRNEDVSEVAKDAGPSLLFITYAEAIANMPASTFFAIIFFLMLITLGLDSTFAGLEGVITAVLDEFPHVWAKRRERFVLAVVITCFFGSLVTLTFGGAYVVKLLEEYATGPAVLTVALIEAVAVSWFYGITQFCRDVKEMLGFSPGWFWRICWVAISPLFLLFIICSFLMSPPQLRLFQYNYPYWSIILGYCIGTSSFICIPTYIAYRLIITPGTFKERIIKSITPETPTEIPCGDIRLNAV

[7] = human
[8] = human; remark: listed apart in the source
[9] = molecular target: T3, human SERT; experiment: Transporter-mediated 5-HT release from preloaded HEK 293 cells; format: cell-based; conditions: 100 μM, 15 min, compared with citalopram (negative control)
[10] = molecular target: T1, human NET; experiment: Transporter-mediated noradrenaline release from preloaded HEK 293 cells; format: cell-based; conditions: 100 μM, 45 min, compared with nisoxetine (negative control)
[11] = molecular target: T4, 5‐HT2C receptor (Homo sapiens, UniProt P28335); experiment: biochemical; format: binding
T4 sequence (P28335 33-458): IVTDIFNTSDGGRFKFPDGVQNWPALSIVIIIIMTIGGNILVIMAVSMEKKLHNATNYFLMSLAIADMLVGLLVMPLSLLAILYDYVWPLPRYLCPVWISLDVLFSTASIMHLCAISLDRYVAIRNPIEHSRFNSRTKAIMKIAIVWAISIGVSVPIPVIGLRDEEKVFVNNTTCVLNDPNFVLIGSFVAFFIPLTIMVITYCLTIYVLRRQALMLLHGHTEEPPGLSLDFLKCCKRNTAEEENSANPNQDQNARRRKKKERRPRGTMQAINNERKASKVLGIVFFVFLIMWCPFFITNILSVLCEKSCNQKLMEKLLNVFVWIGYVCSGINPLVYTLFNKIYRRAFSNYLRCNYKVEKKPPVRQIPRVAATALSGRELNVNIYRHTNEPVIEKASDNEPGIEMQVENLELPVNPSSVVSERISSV

[12] = human, in vivo
[13] = mouse; cited from earlier work
[14] = in vivo; cited from earlier work
[15] = read-out: 5‐HT1A Receptor binding Ki ± SD
[16] = read-out: 5‐HT2A Receptor binding Ki ± SD
[17] = read-out: 5‐HT2C Receptor binding Ki ± SD

T1 sequence (P23975 whole entry): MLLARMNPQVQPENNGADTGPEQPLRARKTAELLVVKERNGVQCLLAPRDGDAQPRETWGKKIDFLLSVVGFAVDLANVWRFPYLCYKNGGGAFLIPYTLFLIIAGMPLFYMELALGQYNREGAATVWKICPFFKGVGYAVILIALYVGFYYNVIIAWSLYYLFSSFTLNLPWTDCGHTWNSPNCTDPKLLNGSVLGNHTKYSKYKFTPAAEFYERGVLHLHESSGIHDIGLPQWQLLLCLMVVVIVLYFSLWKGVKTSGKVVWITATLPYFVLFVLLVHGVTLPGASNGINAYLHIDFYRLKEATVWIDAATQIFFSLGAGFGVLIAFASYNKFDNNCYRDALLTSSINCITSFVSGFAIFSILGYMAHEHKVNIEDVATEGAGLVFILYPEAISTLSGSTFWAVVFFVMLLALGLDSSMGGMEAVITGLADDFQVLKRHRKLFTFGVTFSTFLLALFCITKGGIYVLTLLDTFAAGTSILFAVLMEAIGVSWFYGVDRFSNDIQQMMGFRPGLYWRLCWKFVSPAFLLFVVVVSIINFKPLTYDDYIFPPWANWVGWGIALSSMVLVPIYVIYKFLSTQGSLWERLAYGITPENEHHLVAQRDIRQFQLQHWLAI
human DAT, sequence (Q01959 whole entry): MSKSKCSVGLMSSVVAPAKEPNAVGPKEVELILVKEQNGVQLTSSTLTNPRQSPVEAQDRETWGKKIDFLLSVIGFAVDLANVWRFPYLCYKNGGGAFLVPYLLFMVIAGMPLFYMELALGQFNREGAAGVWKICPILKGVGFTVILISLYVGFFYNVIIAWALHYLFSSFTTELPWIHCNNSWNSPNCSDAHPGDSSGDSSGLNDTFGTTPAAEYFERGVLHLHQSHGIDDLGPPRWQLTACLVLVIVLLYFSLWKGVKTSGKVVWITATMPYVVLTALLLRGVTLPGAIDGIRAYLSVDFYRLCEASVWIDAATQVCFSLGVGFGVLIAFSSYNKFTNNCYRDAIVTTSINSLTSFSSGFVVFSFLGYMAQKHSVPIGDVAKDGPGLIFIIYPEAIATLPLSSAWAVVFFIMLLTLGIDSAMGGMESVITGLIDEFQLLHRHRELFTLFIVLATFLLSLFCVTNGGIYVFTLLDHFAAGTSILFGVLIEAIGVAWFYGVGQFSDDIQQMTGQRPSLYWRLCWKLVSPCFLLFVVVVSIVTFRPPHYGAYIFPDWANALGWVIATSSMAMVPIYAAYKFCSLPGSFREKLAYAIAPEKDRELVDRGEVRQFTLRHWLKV

Structure (SMILES) | IC50 [1] | IC50 [2] | IC50 [6] | Ki [3] | Ki [4] | WHO database: cases of serotonin syndrome, only suspected cause [7] | WHO database: cases of serotonin syndrome, only suspected cause or among others [7] | Medline database: number of published cases of serotonin syndrome [8] | further results
CN(C)C[C@H]1CCCC[C@]1(O)c1cccc(O)c1 (relative stereo) [O‐desmethyltramadol, O‐desmethyl‐cis‐tramadol] |  |  |  |  |  |  |  |  | IC50 ([1]; read-out: NET IC50 (95% CI)): 6.1 µM; IC50 ([2]; read-out: DAT IC50 (95% CI)): > 100 µM; Ki [3, 15]: > 17 µM; Ki [4, 16]: > 13 µM; Cu,brain [5]: 0.1–1.1 ^k μM
CC(=O)O[C@H]1C=C[C@H]2[C@H]3Cc4ccc(O)c5c4[C@@]2(CCN3C)[C@H]1O5 [6‐Acetylmorphine, 6‐acetylmorphine] | > 100 µM | > 100 µM | > 100 µM | > 17 µM | > 13 µM |  |  |  | 
CN(C)CCCC1(c2ccc(F)cc2)OCc2cc(C#N)ccc21 (centres unmarked) [Citalopram] |  |  |  |  |  | 178 | 777 | 57 | 
COc1ccc2c3c1O[C@H]1[C@@H](O)C=C[C@H]4[C@@H](C2)N(C)CC[C@@]341 [Codeine] | > 100 µM | > 100 µM | > 100 µM | > 17 µM | > 13 µM | 0 | 32 | 0 | 
COc1ccc2c(c1)[C@]13CCCC[C@@H]1[C@H](C2)N(C)CC3 [Dextromethorphan] | 5.8 µM | > 100 µM |  | > 17 µM |  | 7 | 86 | 12 | Cu,brain ([5]; human): 0–0.44 ^d μM
COc1ccc2c3c1O[C@H]1[C@@H](O)CC[C@H]4[C@@H](C2)N(C)CC[C@@]341 [Dihydrocodeine] | > 100 µM | > 100 µM | > 100 µM | > 17 µM | > 13 µM | 0 | 4 | 0 | 
CNCC[C@H](Oc1cccc2ccccc12)c1cccs1 [Duloxetine] |  |  |  |  |  | 550 | 993 | 20 | 
CNCCC(Oc1ccc(C(F)(F)F)cc1)c1ccccc1 (centres unmarked) [Fluoxetine] |  |  |  |  |  | 181 | 641 | 54 | 
CC(=O)Oc1ccc2c3c1O[C@H]1[C@@H](OC(C)=O)C=C[C@H]4[C@@H](C2)N(C)CC[C@@]341 [Heroin, diacetylmorphine] | > 100 µM | > 100 µM | > 100 µM | > 17 µM | > 13 µM |  |  |  | 
COc1ccc2c3c1O[C@H]1C(=O)CC[C@H]4[C@@H](C2)N(C)CC[C@]314 [Hydrocodone] | > 100 µM | > 100 µM | > 100 µM | > 17 µM | > 13 µM | 0 | 6 | 2 | 
CNC(C)Cc1ccc2c(c1)OCO2 (centres unmarked) [MDMA, 3,4‐Methylenedioxymethamphetamine] |  |  |  |  |  |  |  |  | Transporter-mediated 5-HT release [9]: induced significantly greater 5‐HT and noradrenaline release; Transporter-mediated noradrenaline release [10]: induced significantly greater 5‐HT and noradrenaline release
CCC(=O)C(CC(C)N(C)C)(c1ccccc1)c1ccccc1 (centres unmarked) [Methadone] | 4.1 µM | > 100 µM | 0.23 µM | > 17 µM | 0.61 ± 0.03 µM | 2 | 93 | 3 | IC50 ([6]; SERT inhibition in vitro IC50): 0.23 µM; Ki [11]: 2.2 ± 0.3 µM
CN1CC[C@]23c4c5ccc(O)c4O[C@H]2[C@@H](O)C=C[C@H]3[C@H]1C5 [Morphine] |  |  |  | > 17 µM | > 13 µM | 1 | 64 | 4 | 
COc1ccc2c3c1O[C@H]1C(=O)CC[C@@]4(O)[C@@H](C2)N(C)CC[C@]314 [Oxycodone] | > 100 µM | > 100 µM | > 100 µM | > 17 µM | > 13 µM | 2 | 101 | 13 | IC50 ([6]; SERT inhibition in vitro IC50): > 100 µM; Cu,plasma [12]: 0.2 µM; fu,plasma [13]: 0.6
CN1CC[C@]23c4c5ccc(O)c4O[C@H]2C(=O)CC[C@@]3(O)[C@H]1C5 [Oxymorphone] | > 100 µM | > 100 µM | > 100 µM | > 17 µM | > 13 µM | 0 | 3 | 0 | 
CCOC(=O)C1(c2ccccc2)CCN(C)CC1 [Pethidine] |  |  |  |  |  | 6 | 66 | 5 | Cu,plasma [12]: 0.3 to 2.3 µM; estimated maximal plasma concentration at maximal single dose ([12]; im): e Maximal concentration after a single dose of pethidine of 50 mg intramuscularly was 2 μM (Erstad et al., 1997). The drug label indicates threefold higher maximal single doses of 150 mg i.m. resulting in threefold higher estimated concentrations up to 6 μM.; Cu,brain ([5]; human): 0.7–5.4 ^h μM; Maximal plasma concentration after a single dose [14]: e Maximal concentration after a single dose of pethidine of 50 mg intramuscularly was 2 μM (Erstad et al., 1997). The drug label indicates threefold higher maximal single doses of 150 mg i.m. resulting in threefold higher estimated concentrations up to 6 μM.
CC[C@@H](c1cccc(O)c1)[C@@H](C)CN(C)C [Tapentadol] | 1.3 µM | 78 µM | 3.3 µM | > 17 µM | 6.3 ± 0.2 µM | 42 | 115 | 1 | fold more potent inhibitor of the NET versus SERT [1]: 2.6 fold; SERT/NET ratio (95% CI) [6]: 0.39 (0.21–0.70); Ki [11]: 12 ± 3.2 µM; Cu,plasma [12]: 0.1 to 1.5 µM; Cu,brain ([5]; human): 0.2–3.5 ^l μM; Ctotal,plasma [14]: 0.1 to 1.9 µM
COc1cccc(C2(O)CCCCC2CN(C)C)c1 (centres unmarked) [Tramadol] | 2.1 µM | 100 µM |  | > 17 µM |  | 62 | 647 | 26 | Cu,brain ([5]; human): 0.1–4.6 ^j μM; Ctotal,plasma [14]: 0.1–2.5 ^a μM
COc1ccc(C(CN(C)C)C2(O)CCCCC2)cc1 (centres unmarked) [Venlafaxine] |  |  |  | > 17 µM |  | 240 | 859 | 75 | Ki [11]: > 15 µM
CCC(=O)C(C[C@H](C)N(C)C)(c1ccccc1)c1ccccc1 [d(S)‐methadone] |  |  |  |  |  |  |  |  | IC50 ([1]; read-out: NET IC50 (95% CI)): 69 µM; IC50 ([2]; read-out: DAT IC50 (95% CI)): > 100 µM; IC50 ([6]; read-out: SERT IC50 (95% CI)): 5.6 µM; Ki [3, 15]: > 17 µM; Ki [4, 16]: 0.52 ± 0.11 µM; Ki [11, 17]: 1.9 ± 0.2 µM
CCC(=O)C(C[C@@H](C)N(C)C)(c1ccccc1)c1ccccc1 [l(R)‐methadone] |  |  |  |  |  |  |  |  | IC50 ([1]; read-out: NET IC50 (95% CI)): 2.5 µM; IC50 ([2]; read-out: DAT IC50 (95% CI)): > 100 µM; IC50 ([6]; read-out: SERT IC50 (95% CI)): 0.28 µM; Ki [3, 15]: > 17 µM; Ki [4, 16]: 0.72 ± 0.61 µM; Ki [11, 17]: 2.6 ± 0.3 µM
